Measurements reported in patent publication US5474763A, “Reduction of hair growth” (priority 1994, dated 1995).
Like-named read-outs stand apart in the source and are kept apart here.

Experiments:
flank organs hair growth = test: Golden Syrian hamster assay (flank organ hair mass); format: in vivo; conditions: topical, thirteen applications; for Treated (hair mass, mean ± SEM): treated flank organ
Source text: Male intact Golden Syrian hamsters are considered acceptable models for human beard hair growth in that they display oval shaped flank organs, one on each side, each about 8 mm. in major diameter, which grow thick black and coarse hair similar to human beard hair. These organs produce hair in response to androgens in the hamster. To evaluate the effectiveness of a particular OAT inhibitor, the flank organs of each of a group of hamsters are depilated by applying a thioglycolate based chemical depilatory (Surgex). To one organ of each animal 10-25 μl. of vehicle alone once a day is applied, while to the other organ of each animal an equal amount of vehicle containing an OAT inhibitor is applied. After thirteen applications (one application per day for five days a week), the flank organs are shaved and the amount of recovered hair (hair mass) from each is weighed. Percent-reduction of hair growth is calculated by subtracting the hair mass (mg) value of the test compound treated side from the hair mass value of the vehicle treated side; the delta value obtained is then divided by the hair mass value of the vehicle treated side, and the resultant number is multiplied by 100.
The above-described assay will be referred to herein as the "Golden Syrian hamster" assay. Preferred compositions provide an reduction in hair growth of at least about 35%, more preferably at least about 50%, and most preferably at least about 70% when tested in the Golden Syrian hamster assay.
The vehicle used in the compositions tested was 68% deionized water, 16% absolute ethanol, 5% propylene glycol, 5% dipropylene glycol, 4% benzoyl alcohol, and 2% propylene carbonate.

[1] = target: T1, ornithine aminotransferase (OAT) (Mesocricetus auratus, UniProt A0A1U7QEB0); test: OAT activity assay in hair follicles (P5C formation, HPLC of DHQ); format: biochemical, hamster
T1 construct: Assays (including the initial assays) were conducted utilizing excised hamster flank organ follicles; from tissue; host or cells: hamster flank organ hair follicles, minced, sonicated and centrifuged; supernatant assayed
T1 sequence (A0A1U7QEB0 1-439): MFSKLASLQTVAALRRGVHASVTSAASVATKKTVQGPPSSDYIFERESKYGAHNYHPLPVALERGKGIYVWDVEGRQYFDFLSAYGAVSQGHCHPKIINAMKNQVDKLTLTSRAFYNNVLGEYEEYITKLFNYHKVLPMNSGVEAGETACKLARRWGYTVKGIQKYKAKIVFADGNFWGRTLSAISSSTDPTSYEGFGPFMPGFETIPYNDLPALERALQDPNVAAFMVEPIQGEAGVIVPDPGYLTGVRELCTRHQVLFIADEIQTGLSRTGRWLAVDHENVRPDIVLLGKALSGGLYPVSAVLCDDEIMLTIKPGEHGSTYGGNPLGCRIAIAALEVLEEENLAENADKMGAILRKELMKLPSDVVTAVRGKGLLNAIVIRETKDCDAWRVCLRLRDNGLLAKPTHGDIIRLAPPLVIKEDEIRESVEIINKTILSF
Protocol: The following assay for OAT activity based on the procedure of O'Donnell et al., Analytical Biochemistry 90, 41-46 (1978) was adapted for OAT measurements in hair follicles, and can be used to evaluate the effectiveness of OAT inhibitors in reducing OAT activity.
The product of OAT activity, pyrroline-5-carboxylic acid (P5C), was measured by reverse-phase HPLC analysis of dihydroquinazolium ion (DHQ). DHQ is a reaction product of PSC and o-aminobenzylaldehyde (OAB). The analysis was performed with a Waters 490 UV detector. The amount of DHQ formed was directly proportional to the concentration of P5C. The sensitivity of the Waters 490 UV detector had been determined to be above 100 picomoles of PSC injected and was reasonably linear.
Initial assays of flank organ follicle OAT activity were conducted employing saturating doses of ornithine (350 mM). The OAT mediated conversion of ornithine to P5C was monitored by measuring in vitro PSC formation, resulting in time and concentration dependent increases in PSC.
Assays (including the initial assays) were conducted utilizing excised hamster flank organ follicles. The excised hamster follicles were diluted in assay buffer (2 follicles/300 μl) and then were minced with scissors and homogenized with a sonicator. The resultant homogenate was centrifuged to obtain a cytosolic supernatant which was assayed for OAT. Samples were incubated for one hour with either Gabaculin, L-Canaline, or 5-FMOrn at 1 mM, 100 μM, 10 μM, and 1 μM concentrations. The concentration of P5C was then assayed.

[2] = 10 μM, one hour incubation, flank organ follicle supernatant
[3] = 100 μM, one hour incubation, flank organ follicle supernatant, read-out: Percent Inhibition (OAT)

Structure (SMILES): NC(CF)CCC(N)C(=O)O (stereo not shown) [5-FMOrn, 6-fluoro-2,5-diaminohexanoic acid]
- % Reduction (of hair growth, mean ± SEM) (flank organs hair growth; 5% in vehicle): 66.02 ± 6.30%
- Treated (hair mass, mean ± SEM) (flank organs hair growth; 5% in vehicle): .616 ± .15 mg
- % Reduction (of hair growth, mean ± SEM) (flank organs hair growth; 15% in vehicle): 84.55 ± 2.47%
- Treated (hair mass, mean ± SEM) (flank organs hair growth; 15% in vehicle): .322 ± .07 mg
- nm P5C formed/fol/1 hr ([1]; 1 μM, one hour incubation): 31.419 nm P5C formed/fol/1 hr
- Percent Inhibition (OAT) ([1]; 1 μM, one hour incubation, flank organ follicle supernatant): No OAT inhibition and none
- nm P5C formed/fol/1 hr ([1]; 10 μM, one hour incubation): 29.327 nm P5C formed/fol/1 hr
- Percent Inhibition (OAT) [1, 2]: No OAT inhibition and none
- nm P5C formed/fol/1 hr ([1]; 100 μM, one hour incubation): 19.562 nm P5C formed/fol/1 hr
- nm P5C formed/fol/1 hr ([1]; 1 mM, pH = 7.5, one hour incubation): 3.334 nm P5C formed/fol/1 hr
- Percent Inhibition (OAT) ([1]; 1 mM, pH = 7.5, one hour incubation, flank organ follicle supernatant): 83.036%
- inhibition at 100 µM ([1]; read-out: Percent Inhibition (OAT), 100 μM, one hour incubation, flank organ follicle supernatant): 0.471%
- inhibition at 1000 µM ([1]; read-out: Percent Inhibition (OAT), 1 mM, pH = 7.5, one hour incubation, flank organ follicle supernatant): 83%

Structure (SMILES): NOCC[C@H](N)C(=O)O [Canaline, (S)-2-amino-4-amino-oxybutyric acid]
- % Reduction (of hair growth, mean ± SEM) (flank organs hair growth; 2% in vehicle): 20.99 ± 7.70%
- Treated (hair mass, mean ± SEM) (flank organs hair growth; 2% in vehicle): 1.553 ± .20 mg
- % Reduction (of hair growth, mean ± SEM) (flank organs hair growth; 10% in vehicle): 44.50 ± 7.40%
- Treated (hair mass, mean ± SEM) (flank organs hair growth; 10% in vehicle): .790 ± .11 mg
- nm P5C formed/fol/1 hr ([1]; 1 μM, one hour incubation): 29.859 nm P5C formed/fol/1 hr
- Percent Inhibition (OAT) ([1]; 1 μM, one hour incubation, flank organ follicle supernatant, listed as L-Canaline): no inhibition and none
- nm P5C formed/fol/1 hr ([1]; 10 μM, one hour incubation): 24.096 nm P5C formed/fol/1 hr
- Percent Inhibition (OAT) ([1]; 10 μM, one hour incubation, flank organ follicle supernatant, listed as L-Canaline): no inhibition and none
- nm P5C formed/fol/1 hr ([1]; 100 μM, one hour incubation): 14.612 nm P5C formed/fol/1 hr
- Percent Inhibition (OAT) ([1]; 100 μM, one hour incubation, flank organ follicle supernatant, listed as L-Canaline): 25.653%
- inhibition at 100 µM [1, 3]: 25%
- inhibition at 1000 µM ([1]; 1 mM, pH = 7.5, one hour incubation, flank organ follicle supernatant, read-out: Percent Inhibition (OAT)): 100%

Structure (SMILES): NC1C=CC=C(C(=O)O)C1 (stereo not shown) [Gabaculin, 3-amino-2,3-dihydrobenzoic acid]
- % Reduction (of hair growth, mean ± SEM) (flank organs hair growth; 10% in vehicle): 43.06 ± 2.72%
- Treated (hair mass, mean ± SEM) (flank organs hair growth; 10% in vehicle): 1.365 ± .14 mg
- % Reduction (of hair growth, mean ± SEM) (flank organs hair growth; 25% in vehicle): 48.08 ± 5.00%
- Treated (hair mass, mean ± SEM) (flank organs hair growth; 25% in vehicle): 1.266 ± .11 mg
- nm P5C formed/fol/1 hr ([1]; 1 μM, one hour incubation): 19.637 nm P5C formed/fol/1 hr
- inhibition at 1 µM ([1]; 1 μM, one hour incubation, flank organ follicle supernatant, read-out: Percent Inhibition (OAT)): 0.089%
- nm P5C formed/fol/1 hr ([1]; 10 μM, one hour incubation): 5.057 nm P5C formed/fol/1 hr
- Percent Inhibition (OAT) [1, 2]: 74.268%
- inhibition at 10 µM ([1]; 10 μM, one hour incubation, flank organ follicle supernatant, read-out: Percent Inhibition (OAT)): 75%
- inhibition at 100 µM [1, 3]: 100%
- inhibition at 1000 µM ([1]; 1 mM, one hour incubation, flank organ follicle supernatant, read-out: Percent Inhibition (OAT)): 100%
- relative potency as OAT inhibitor ([1]; comparison of Gabaculin, L-Canaline and 5-FMOrn): most potent inhibitor
